# Test results published in patent US7927579B2, “Tandem analyses of noncovalently driven effectors for modulatory mapping of activities of protein sites” (priority 2003, dated 2011).
# Where no end group is shown, it is not given here.
# Tests used:
# [1] = target: T1, HIV protease I (Human immunodeficiency virus type 1 group M subtype B, UniProt P04585); conditions: covalent attachment to Cys95 at the dimer interfaces; Davis et al.; cited from earlier work
# T1 construct: HIV-1 PR (15 μg/ml final concentration) was preincubated at 25 C
# [2] = target: HIV I protease (Human immunodeficiency virus type 1 group M subtype B, UniProt P04585); conditions: Danielson et al.; cited from earlier work
# [3] = target: T2, HIV PR (Human immunodeficiency virus type 1 group M subtype B, UniProt P04585); assay: Octapeptide library screen against HIV PR with and without CuCl2; assay type: biochemical; conditions: non-substrate based inhibiting peptide; residual HIV PR activity measured after cupric ion scavenger
# T2 construct: preincubating the tetrapeptide(s) with HIV PR then adding the disulfide
# Protocol: Combinatorial libraries of octapeptides were synthesized using T, L, N, F, S, G, F Q, V and I at positions 3-6 to generate 10,000 octapeptides. E and I occupied positions 1 and 2, respectively, and G, L occupied positions […], respectively. The C-terminus was in amide form, and the N terminus was in amino form. The peptide libraries were synthesized by standard procedures known in the art, Houghten, supra. The libraries were screened against HIV PR with and without CuCl2. CuCl2 was added to block 50-75% activity. Libraries were screened against CuCl2 by preincubating the tetrapeptide(s) with HIV PR, then adding CuCl2 at t0 and waiting until time tx has elapsed, the time required to inhibit 50-75% of enzyme activity in the absence of the library. At tx residual HIV PR activity was measured according to Danielson et al, supra, after adding cupric ion scavenger, namely, iminodiacetic.
# [4] = target: T2, HIV PR; assay: Tetrapeptide library screen against glutathione or II on HIV PR (assay in Salto et al.); assay type: biochemical; conditions: tetrapeptides preincubated with HIV PR, then disulfide added; (100 μM) printed; bind at the dimer interface
# Protocol: Targeting Cys95. […] Davis et al. Biochemistry 20:2482-2488 (1996). For quantification of the irreversible inactivation of HIV proteases by these disulfides, HIV-1 PR (15 μg/ml final concentration) was preincubated at 25 C in 50 mM HEPES (pH 8.0), 1M NaCl, 1 mM EDTA, 5% Me2SO in the presence of a 10 μM to 1 mM concentration of each inhibitor. At various times, aliquots were removed and assayed for activity. The rates of inactivation were calculated after Salto et al. J. Biol. Chem. 269:10691-10698 (1994).
# Combinatorial libraries containing tetrapeptides were synthesized with free C and N termini using T, L, N, F, R, S, V, G, F Q, and H as amino acid residues randomly located at the four positions of P4P3P2P1 according to procedures well known in the art (Houghten, R. A. Annu. Rev. Pharmacol. Toxicol. 2000, 40:273-282 and references therein). The amino acids were either spatially separated or synthesized in 100 pools of 100 tetrapeptides. Libraries were screened against glutathione or II by preincubating the tetrapeptide(s) with HIV PR then adding the disulfide and waiting until time t^ has elapsed (the time required to inhibit 50-75% of the biological target molecule's activity) in the absence of the library.
Compound,inactivation of HIV protease I by covalent attachment to Cys95 [1],activity in library screen against disulfide inactivation of HIV PR [4],other results
"O=C(O)c1cc(SSc2ccc([N+](=O)[O-])c(C(=O)O)c2)ccc1[N+](=O)[O-] [5,5′-dithiobis(2-nitrobenzoic acid)]",inactivate HIV protease I,–,–
"[Cl][Cu][Cl] [Cupric ions, CuCl2]",–,–,inactivation of HIV I protease by binding to Cys67 and His69 [2]: specifically inactivate HIV I protease
N[C@@H](CCC(=O)N[C@@H](CS)C(=O)NCC(=O)O)C(=O)O [glutathione],inactivate HIV protease I,–,–
LGQGVSIE-NH2,–,–,inhibitory activity against HIV PR [3]: about 5 μM
S-F-N-L (SFNL) [tetrapeptide with free C and N termini from combinatorial library],–,most active,–
TLNL [tetrapeptide with free C and N termini from combinatorial library],–,most active,–
